Experimental data: patent US10219516B2, “Molecules having pesticidal utility, and intermediates, compositions, and processes, related thereto” (priority 2015, dated 2019)

Tests used:
Assay type in all cases: in vivo
[1] = test system: Beet Armyworm (Spodoptera exigua, LAPHEG); test: Bioassay on Beet Armyworm (BAW), 128-well diet tray assay; settings: Beet Armyworm, 128-well diet tray assay, read-out: BAW rating
Method in brief: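 Diet tray, 8 wells/compound; 50 μg/cm^2 applied to diet surface (90:10 acetone-water), dried. 1–5 L2 larvae/well; 25° C., 14:10 L:D, 5–7 d. Read-out: % mortality, mean of 8 wells.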

[2] = test system: Cabbage Looper (Trichoplusia ni, TRIPNI); test: Bioassay on Cabbage Looper (CL), 128-well diet tray assay; settings: Trichoplusia ni; Cabbage Looper, 128-well diet tray assay; read-out: CL rating
Method in brief: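 Using eight wells per molecule, artificial diet was dosed at 50 μg/cm^2 with compound in 90:10 acetone-water and dried before one to five second-instar larvae were added per well. Covered vented trays were kept at 25° C. with 14:10 light-dark for five to seven days, then per-well percent mortality was recorded and averaged.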

[3] = test system: Yellow Fever Mosquito (Aedes aegypti, AEDSAE); test: Bioassay on Yellow Fever Mosquito (YFM), 96-well plate larval assay; settings: Yellow Fever Mosquito, 96-well plate larval assay
Method in brief: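 Compound stocks at 4000 ppm in DMSO were diluted with 90:10 water/acetone, and 15 μL aliquots were dispensed into six replicate plates. About 1-day-old larvae in liver-powder water were added per well. Plates were covered and held at room temperature for 3 days before each well was scored for mortality.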

Compound	pest or weed control at 50 µg/cm2 [1] [%]	pest or weed control at 50 µg/cm2 [2] [%]	YFM rating [3]
C=Cc1c(F)cnc(NC(=O)c2cc(NC(=O)[C@H]3[C@H](c4cc(Cl)cc(Cl)c4)C3(Cl)Cl)ccc2Cl)c1F (relative stereo) [F393, trans-2-chloro-5-(2,2-dichloro-3-(3,5-dichlorophenyl)cyclopropane-1-carboxamido)-N-(3,5-difluoro-4-vinylpyridin-2-yl)benzamide]	50 to 100	50 to 100	A (80-100)
C=C(F)c1c(F)cnc(NC(=O)c2cc(NC(=O)[C@H]3[C@H](c4cc(Cl)cc(Cl)c4)C3(Cl)Cl)ccc2Cl)c1F (relative stereo) [F394, 2-Chloro-5-(trans-2,2-dichloro-3-(3,5-dichlorophenyl)cyclopropane-1-carboxamido)-N-(3,5-difluoro-4-(1-fluorovinyl)pyridin-2-yl)benzamide]	50 to 100	50 to 100	A (80-100)
O=C(Nc1cnc(F)c(Br)c1)c1cc(NC(=O)[C@H]2[C@H](c3cc(Cl)cc(Cl)c3)C2(Cl)Cl)ccc1Cl (relative stereo) [F395, N-(5-Bromo-6-fluoropyridin-3-yl)-2-chloro-5-(trans-2,2-dichloro-3-(3,5-dichlorophenyl)cyclopropane-1-carboxamido)benzamide]	50 to 100	50 to 100	A (80-100)
Cc1cc(NC(=O)c2cc(NC(=O)[C@H]3[C@H](c4cc(Cl)cc(Cl)c4)C3(Cl)Cl)ccc2Cl)cnc1F (relative stereo) [F396, 2-Chloro-5-(trans-2,2-dichloro-3-(3,5-dichlorophenyl)cyclopropane-1-carboxamido)-N-(6-fluoro-5-methylpyridin-3-yl)benzamide]	50 to 100	50 to 100	A (80-100)
C=Cc1ccc(NC(=O)c2cc(NC(=O)[C@H]3[C@H](c4cc(Cl)cc(Cl)c4)C3(Cl)Cl)ccc2Cl)nc1F (relative stereo) [F397, 2-Chloro-5-(trans-2,2-dichloro-3-(3,5-dichlorophenyl)cyclopropane-1-carboxamido)-N-(6-fluoro-5-vinylpyridin-2-yl)benzamide]	50 to 100	50 to 100	A (80-100)
C=C(F)c1ccc(NC(=O)c2cc(NC(=O)[C@H]3[C@H](c4cc(Cl)cc(Cl)c4)C3(Cl)Cl)ccc2Cl)nc1F (relative stereo) [F398, 2-chloro-5-(trans-2,2-dichloro-3-(3,5-dichlorophenyl)cyclopropane-1-carboxamido)-N-(6-fluoro-5-(1-fluorovinyl)pyridin-2-yl)benzamide]	50 to 100	50 to 100	A (80-100)
C=Cc1cc(NC(=O)c2cc(NC(=O)[C@H]3[C@H](c4cc(Cl)cc(Cl)c4)C3(Cl)Cl)ccc2Cl)cnc1F (relative stereo) [F399, 2-Chloro-5-(trans-2,2-dichloro-3-(3,5-dichlorophenyl)cyclopropane-1-carboxamido)-N-(6-fluoro-5-vinylpyridin-3-yl)benzamide]	50 to 100	50 to 100	A (80-100)
C=C(F)c1cc(NC(=O)c2cc(NC(=O)[C@H]3[C@H](c4cc(Cl)cc(Cl)c4)C3(Cl)Cl)ccc2Cl)cnc1F (relative stereo) [F400, 2-Chloro-5-(trans-2,2-dichloro-3-(3,5-dichlorophenyl)cyclopropane-1-carboxamido)-N-(6-fluoro-5-(1-fluorovinyl)pyridin-3-yl)benzamide]	50 to 100	50 to 100	A (80-100)
C#Cc1ccc([C@H]2[C@H](C(=O)Nc3ccc(Cl)c(C(=O)Nc4ccc(F)cc4C#N)c3)C2(Cl)Cl)cc1Cl (relative stereo) [F401, 2-chloro-N-(2-cyano-4-fluorophenyl)-5-(trans-2,2-dichloro-3-(3-chloro-4-ethynylphenyl)cyclopropane-1-carboxamido)benzamide]	50 to 100	50 to 100	A (80-100)
C#Cc1cc([C@H]2[C@H](C(=O)Nc3ccc(Cl)c(C(=O)Nc4ccc(F)cc4)c3)C2(Cl)Cl)ccc1Cl (relative stereo) [F410, 2-Chloro-5-(trans-2,2-dichloro-3-(4-chloro-3-ethynylphenyl)cyclopropane-1-carboxamido)-N-(4-fluorophenyl)benzamide]	50 to 100	50 to 100	A (80-100)
O=C(Nc1ccc(F)cc1F)c1cc(NC(=O)[C@H]2[C@H](c3cc(F)cc(F)c3)C2(Cl)Cl)ccc1Cl (relative stereo) [F411, 2-Chloro-5-(trans)-(2,2-dichloro-3-(3,5-difluorophenyl)cyclopropane-1-carboxamido)-N-(2,4-difluorophenyl)benzamide]	50 to 100	50 to 100	A (80-100)
C#CCN(C(=O)c1cc(NC(=O)[C@H]2[C@H](c3cc(Cl)cc(Cl)c3)C2(Cl)Cl)ccc1Cl)c1ccc(F)cc1 (relative stereo) [F413, trans-2-Chloro-5-(2,2-dichloro-3-(3,5-dichlorophenyl)cyclopropane-1-carboxamido)-N-(4-fluorophenyl)-N-(prop-2-yn-1-yl)benzamide]	50 to 100	50 to 100	A (80-100)
O=C(Nc1ccc(F)cc1)c1cc(NC(=O)[C@H]2[C@H](c3ccc([N+](=O)[O-])cc3)C2(Cl)Cl)ccc1Cl (relative stereo) [F422, 2-chloro-5-(trans-2,2-dichloro-3-(4-nitrophenyl)cyclopropane-1-carboxamido)-N-(4-fluorophenyl)benzamide]	50 to 100	50 to 100	A (80-100)
O=C(Nc1ccc(F)cc1F)c1cc(NC(=O)[C@H]2[C@H](c3cc(Br)cc(C(F)(F)F)c3)C2(Cl)Cl)ccc1Cl (relative stereo) [F424, 5-(trans)-(3-(3-Bromo-5-(trifluoromethyl)phenyl)-2,2-dichlorocyclopropane-1-carboxamido)-2-chloro-N-(2,4-difluorophenyl)benzamide]	50 to 100	50 to 100	A (80-100)
O=C(Nc1ccc(-n2cccn2)cc1)c1cc(NC(=O)[C@H]2[C@H](c3cc(Cl)cc(Cl)c3)C2(Cl)Cl)ccc1Cl (relative stereo) [F440, trans-N-(4-(1H-Pyrazol-1-yl)phenyl)-2-chloro-5-(2,2-dichloro-3-(3,5-dichlorophenyl)cyclopropanecarboxamido)benzamide]	50 to 100	50 to 100	A (80-100)
O=C(Nc1ccc2sccc2c1)c1cc(NC(=O)[C@H]2[C@H](c3cc(Cl)cc(Cl)c3)C2(Cl)Cl)ccc1Cl (relative stereo) [F452, trans-N-(Benzo[b]thiophen-5-yl)-2-chloro-5-(2,2-dichloro-3-(3,5-dichlorophenyl)cyclopropane-1-carboxamido)benzamide]	50 to 100	50 to 100	A (80-100)
CN1C(=O)Cc2cc(NC(=O)c3cc(NC(=O)[C@H]4[C@H](c5cc(Cl)cc(Cl)c5)C4(Cl)Cl)ccc3Cl)ccc21 (relative stereo) [F459, 2-Chloro-5-(trans)-(2,2-dichloro-3-(3,5-dichlorophenyl)cyclopropane-1-carboxamido)-N-(1-methyl-2-oxoindolin-5-yl)benzamide]	50 to 100	50 to 100	A (80-100)
Cn1nc(NC(=O)c2cc(NC(=O)[C@H]3[C@H](c4cc(Cl)cc(Cl)c4)C3(Cl)Cl)ccc2Cl)c2cc(C(F)(F)F)ccc21 (relative stereo) [F460, 2-Chloro-5-(trans)-(2,2-dichloro-3-(3,5-dichlorophenyl)cyclopropane-1-carboxamido)-N-(1-methyl-5-(trifluoromethyl)-1H-indazol-3-yl)benzamide]	50 to 100	50 to 100	A (80-100)
O=C(Nc1ccc(-c2nccs2)cc1)c1cc(NC(=O)[C@H]2[C@H](c3cc(Cl)cc(Cl)c3)C2(Cl)Cl)ccc1Cl (relative stereo) [F461, trans-2-Chloro-5-(2,2-dichloro-3-(3,5-dichlorophenyl)cyclopropane-1-carboxamido)-N-(4-(thiazol-2-yl)phenyl)benzamide]	50 to 100	50 to 100	A (80-100)
O=C(Nc1cc(F)c2[nH]ccc2c1)c1cc(NC(=O)[C@H]2[C@H](c3cc(Cl)cc(Cl)c3)C2(Cl)Cl)ccc1Cl (relative stereo) [F462, 2-Chloro-5-(trans)-(2,2-dichloro-3-(3,5-dichlorophenyl)cyclopropane-1-carboxamido)-N-(7-fluoro-1H-indol-5-yl)benzamide]	50 to 100	50 to 100	A (80-100)
Cn1nc(NC(=O)c2cc(NC(=O)[C@H]3[C@H](c4cc(Cl)cc(Cl)c4)C3(Cl)Cl)ccc2Cl)c2c(Cl)cccc21 (relative stereo) [F463, 2-Chloro-N-(4-chloro-1-methyl-1H-indazol-3-yl)-5-(trans)-(2,2-dichloro-3-(3,5-dichlorophenyl)cyclopropane-1-carboxamido)benzamide]	50 to 100	50 to 100	A (80-100)
